Data on 1 molecule can be found in patent publication US8137907B2, “Orthotopic and genetically tractable non-human animal model for liver cancer and the uses thereof” (Cold Spring Harbor Laboratory, priority 2005, dated 2012).

The assay relates to subcutaneous liver tumor of genetic constellation p53−/−+Akt-over expression. In words: Subcutaneous liver cancer model, evaluation of tumor therapy (FIG. 7). Format: in vivo, mouse. An excerpt:
FIG. 7: An example of subcutaneous liver cancer model of this invention on the genetic constellation p53−/−+Akt-over expression and its uses in evaluating tumor therapy. Akt is an […] that is activated in many cancers and may promote drug resistance in vitro (Mayo et al., “PTEN protects p53 from Mdm2 and sensitizes cancer cells to chemotherapy,” J. Biol. Chem. 277: 5484-5489 (2002)).
Most preferably, the therapies are used and evaluated in combination. […] The tumor embodied in FIG. 2 can also be treated with Rapamycin, a targeted therapy that inhibits the mammalian target of rapamycin (mTOR). […] In combination, however, as depicted in FIG. 7, the two therapies control tumor growth.

`Nc1ccn([C@@H]2O[C@H](CO)[C@@H](O)C2(F)F)c(=O)n1` [Gemcitabine]: the tumor growth result is listed as “virtually no effect on tumor growth”.
